Like-named read-outs stand apart in the source and are kept apart here.
Tested on: HCV pseudoparticles (genotype 1a HCV E1 and E2 envelope, H77C isolate)
Test: microbe, parasite or virus in culture
Type: cell-based
Conditions: Hepatitis C virus
[1] = Huh-7, 48 h, read-out: Activity (EC50 class), HCV pseudoparticle infection of Huh7 cells, luciferase 2 days after infection, EC50 expressed as class A/B
[2] = Huh-7, 48 h, read-out: Activity (EC50 class), HCV pseudoparticles, Huh7 cells, luciferase 2 days after infection, average of duplicates
[3] = Huh-7, 48 h, HCV pseudoparticles (genotype 1a, H77C) in Huh7 cells, average of duplicate, luciferase 2 days after infection
[4] = Huh-7, read-out: Activity (EC50 class), HCV pseudoparticles (genotype 1a, H77C) in Huh7 cells, EC50 expressed as class A/B
[5] = Huh-7, 48 h, HCV pseudoparticle infection of Huh7 cells, luciferase 2 days after infection, average of duplicates

| SMILES | EC50 [1] [nM] | EC50 [4] [nM] | further results |
| --- | --- | --- | --- |
| COC(=O)[C@H](CNC(=O)C(=O)NCCc1ccccn1)NC(=O)c1ccc(Nc2nc(NC3(c4ccc(Cl)cc4)CC3)nc(OCC(F)(F)F)n2)cc1 [Compound 1282] | 0.01 to 10 | – | – |
| Cc1cc(NC(=O)C(=O)NCC(C)(C)CNC(=O)c2ccc(Nc3nc(NC4(c5ccc(Cl)cc5)CC4)nc(OCC(F)(F)F)n3)cc2)ccc1Cl [Compound 3798] | – | – | EC50 [2]: 0.01 to 10 nM |
| Cc1ccc(NC(=O)C(=O)NCC(C)(C)CNC(=O)c2ccc(Nc3nc(NC4(c5ccc(Cl)cc5)CC4)nc(OCc4ccc(OC(F)F)cc4)n3)cc2)cc1 [Compound 3840] | – | – | EC50 [2]: 0.01 to 10 nM |
| CC(C)(CNC(=O)C(=O)NC1CC1)CNC(=O)c1ccc(Nc2nc(NC3(c4ccc(Cl)cc4)CC3)nc(OCC(F)(F)F)n2)cc1 [Compound 3066] | – | 0.01 to 10 | EC50 [3]: 0.032 nM |
| COC(=O)[C@H](CNC(=O)C(=O)NCC1CCCN(C(=O)OC(C)(C)C)C1)NC(=O)c1ccc(Nc2nc(NC3(c4ccc(Cl)cc4)CC3)nc(OCC(F)(F)F)n2)cc1 (stereo partly drawn) [Compound 1452] | 0.01 to 10 | – | EC50 [5]: 1.83 nM |
| CC(C)(CNC(=O)C(=O)Nc1ccc(-c2ccncc2)cc1)CNC(=O)c1ccc(Nc2nc(NC3(c4ccc(Cl)cc4)CC3)nc(OCC(F)(F)F)n2)cc1 [Compound 3796] | – | – | EC50 [2]: 0.01 to 10 nM |
| COC(=O)[C@H](CNC(=O)C(=O)NCC1OCCc2ccccc21)NC(=O)c1ccc(Nc2nc(NC3(c4ccc(Cl)cc4)CC3)nc(OCC(F)(F)F)n2)cc1 (stereo partly drawn) [Compound 1297] | 0.01 to 10 | – | – |
| CC(C)OC(=O)c1ccc(NC(=O)C(=O)NCC(C)(C)CNC(=O)c2ccc(Nc3nc(NC4(c5ccc(Cl)cc5)CC4)nc(OCC(F)(F)F)n3)cc2)cc1 [Compound 3259] | – | 0.01 to 10 | – |
| Cn1ccc(NC(=O)C(=O)NCC[C@H](NC(=O)c2ccc(Nc3nc(NC4(c5ccc(Cl)cc5)CC4)nc(OCC(F)(F)F)n3)cc2)C(=O)O)n1 [Compound 1263] | 0.01 to 10 | – | – |
| O=C(NCC[C@H](NC(=O)c1ccc(Nc2nc(NC3(c4ccc(Cl)cc4)CC3)nc(OCC(F)(F)F)n2)cc1)C(=O)O)C(=O)NCC1CCOCC1 [Compound 1215] | 0.01 to 10 | – | – |
| COC(=O)[C@H](CCNC(=O)C(=O)Nc1ccc(-c2ccccc2)c(OC)c1)NC(=O)c1ccc(Nc2nc(NC3(c4ccc(Cl)cc4)CC3)nc(OCC(F)(F)F)n2)cc1 [Compound 1518] | 0.01 to 10 | – | – |
| CCOC(=O)[C@H](CCNC(=O)C(=O)N(C)C)NC(=O)c1ccc(Nc2nc(NC3(c4ccc(Cl)cc4)CC3)nc(OCC(F)(F)F)n2)cc1 [Compound 1026, (S)-ethyl 2-(4-(4-(1-(4-chlorophenyl)cyclopropylamino)-6-(2,2,2-trifluoroethoxy)-1,3,5-triazin-2-ylamino)benzamido)-4-(2-(dimethylamino)-2-oxoacetamido)butanoate] | 0.01 to 10 | – | EC50 [5]: 2.68 nM |
| COC(=O)[C@H](CCNC(=O)C(=O)Nc1ccc(O)cc1)NC(=O)c1ccc(Nc2nc(NC3(c4ccc(Cl)cc4)CC3)nc(OCC(F)(F)F)n2)cc1 [Compound 1526] | 0.01 to 10 | – | – |
| Cc1ccc(NC(=O)C(=O)N(C)CCCN(C)C(=O)c2ccc(Nc3nc(NC4(c5ccc(Cl)cc5)CC4)nc(OCC(F)(F)F)n3)cc2)cc1 [Compound 3406] | – | 0.01 to 10 | EC50 [3]: 1.91 nM |
| COC(=O)[C@@H](CCNC(=O)C(O)NCC1CC1c1cccc(F)c1)NC(=O)c1ccc(Nc2nc(NC3(c4ccc(Cl)cc4)CC3)nc(OCC(F)(F)F)n2)cc1 (stereo partly drawn) [Compound 1376] | 0.01 to 10 | – | – |
| CC1CC(=O)c2ccc(NC(=O)C(=O)NCC(C)(C)CNC(=O)c3ccc(Nc4nc(NC5(c6ccc(Cl)cc6)CC5)nc(OCC(F)(F)F)n4)cc3)cc2O1 (stereo not drawn) [Compound 3336] | – | 0.01 to 10 | EC50 [3]: 0.09 nM |
| NC(=O)C(=O)NCCCCNC(=O)c1ccc(Nc2nc(NC3(c4ccc(Cl)cc4)CC3)nc(OCC(F)(F)F)n2)cc1 [Compound 3391] | – | 0.01 to 10 | – |
| O=C(Nc1ccc(F)cc1)C(=O)NC1CCCC1CNC(=O)c1ccc(Nc2nc(NC3(c4ccc(Cl)cc4)CC3)nc(OCC(F)(F)F)n2)cc1 (stereo not drawn) [Compound 1465, N^1-(2-((4-((4-((1-(4-chlorophenyl)cyclopropyl)amino)-6-(2,2,2-trifluoroethoxy)-1,3,5-triazin-2-yl)amino)benzamido)methyl)cyclopentyl)-N^2-(4-fluorophenyl)oxalamide] | 0.01 to 10 | – | – |
| O=C(NCCCCNC(=O)c1ccc(Nc2nc(NC3(c4ccc(Cl)cc4)CC3)nc(OCC(F)(F)F)n2)cc1)C(=O)Nc1nccs1 [Compound 3399] | – | 0.01 to 10 | – |
| COC(=O)[C@H](CNC(=O)C(=O)Nc1ccc(-c2ccc(C#N)cc2)cc1)NC(=O)c1ccc(Nc2nc(NC3(c4ccc(Cl)cc4)CC3)nc(OCC(F)(F)F)n2)cc1 [Compound 3103] | – | 0.01 to 10 | – |
| COC(=O)[C@H](CCNC(=O)C(=O)Nc1cccc(C2=NC(C)=CC2)c1)NC(=O)c1ccc(Nc2nc(NC3(c4ccc(Cl)cc4)CC3)nc(OCC(F)(F)F)n2)cc1 [Compound 3601] | – | – | EC50 [2]: 0.01 to 10 nM |
| CCOC(=O)C(=O)NC[C@H](NC(=O)c1ccc(Nc2nc(NC3(c4ccc(Cl)cc4)CC3)nc(OCC(F)(F)F)n2)cc1)C(=O)OC [Compound 1001, (S)-methyl 2-(4-(4-(1-(4-chlorophenyl)cyclopropylamino)-6-(2,2,2-trifluoroethoxy)-1,3,5-triazin-2-ylamino)benzamido)-3-(2-ethoxy-2-oxoacetamido)propanoate] | 10 to 1000 | – | – |

| SMILES | EC50 [1] [nM] | EC50 [4] [nM] | further results |
| --- | --- | --- | --- |
| O=C(NCCCNC(=O)c1ccc(Nc2nc(NC3(c4ccc(Cl)cc4)CC3)nc(OCC(F)(F)F)n2)cc1)C(=O)NCc1ccc(F)cc1 [Compound 3357] | – | 0.01 to 10 | – |
| COc1ccc(NC(=O)C(=O)NC[C@H](NC(=O)c2ccc(Nc3nc(NC4(c5ccc(Cl)cc5)CC4)nc(OCC(F)(F)F)n3)cc2)C(=O)O)cc1 [Compound 1362] | 0.01 to 10 | – | EC50 [5]: 0.3 nM |
| COc1cccc(CNC(=O)C(=O)NCC(C)(C)CNC(=O)c2ccc(Nc3nc(NC4(c5ccc(Cl)cc5)CC4)nc(OCC(F)(F)F)n3)cc2)c1 [Compound 3012] | – | 0.01 to 10 | – |
| COC(=O)[C@H](CNC(=O)C(=O)Nc1ccn(C)n1)NC(=O)c1ccc(Nc2nc(NC3(c4ccc(Cl)cc4)CC3)nc(OCC(F)(F)F)n2)cc1 [Compound 1244] | 0.01 to 10 | – | – |
| CCc1cccc(NC(=O)C(=O)NCC[C@H](NC(=O)c2ccc(Nc3nc(NC4(c5ccc(Cl)cc5)CC4)nc(OCC(F)(F)F)n3)cc2)C(=O)O)c1 [Compound 3614] | – | – | EC50 [2]: 0.01 to 10 nM |
| COC(=O)[C@H](CNC(=O)C(=O)Nc1cccc(Oc2ccccc2)c1)NC(=O)c1ccc(Nc2nc(NC3(c4ccc(Cl)cc4)CC3)nc(OCC(F)(F)F)n2)cc1 [Compound 3694] | – | – | EC50 (Huh-7, 48 h, HCV pseudoparticles, Huh7 cells, luciferase 2 days after infection, average of duplicates): 2.23 nM; EC50 [2]: 0.01 to 10 nM |
| CCC(CC)NC(=O)C(=O)NCCC(NC(=O)c1ccc(Nc2nc(NC3(c4ccc(Cl)cc4)CC3)nc(OCC(F)(F)F)n2)cc1)C(=O)OC (stereo not drawn) [Compound 1106] | 0.01 to 10 | – | – |
| CC(C)(CNC(=O)C(=O)Nc1ccc2cn[nH]c2c1)CNC(=O)c1ccc(Nc2nc(NC3(c4ccc(Cl)cc4)CC3)nc(OCC(F)(F)F)n2)cc1 [Compound 3022] | – | 0.01 to 10 | – |
| CC(C)(CNC(=O)C(=O)Nc1ccc(CCC(=O)O)cc1)CNC(=O)c1ccc(Nc2nc(NC3(c4ccc(Cl)cc4)CC3)nc(OCC(F)(F)F)n2)cc1 [Compound 1483] | 0.01 to 10 | – | – |
| O=C(NCC(O)CNC(=O)c1ccc(Nc2nc(NC3(c4ccc(Cl)cc4)CC3)nc(OCC(F)(F)F)n2)cc1)C(=O)NC1CCCCC1 (stereo not drawn) [Compound 3463] | – | 0.01 to 10 | – |
| CC(C)(CNC(=O)C(=O)Nc1ccccc1)CNC(=O)c1ccc(Nc2nc(NC3(c4ccc(Cl)cc4)CC3)nc(OCC(F)(F)F)n2)cc1 [Compound 1537] | 0.01 to 10 | – | – |
| O=C(NCC[C@H](NC(=O)c1ccc(Nc2nc(NC3(c4ccc(Cl)cc4)CC3)nc(OCC(F)(F)F)n2)cc1)C(=O)O)C(=O)Nc1cccc(-c2ccccc2)c1 [Compound 1523] | 0.01 to 10 | – | EC50 [5]: 0.26 nM |
| COC(=O)[C@H](CCNC(=O)C(=O)Nc1ccc(F)cc1F)NC(=O)c1ccc(Nc2nc(NC3(c4ccc(Cl)cc4)CC3)nc(OCC(F)(F)F)n2)cc1 [Compound 1501] | 0.01 to 10 | – | – |
| CC(C)(C)CNC(=O)C(=O)NCC[C@H](NC(=O)c1ccc(Nc2nc(NC3(c4ccc(Cl)cc4)CC3)nc(OCC(F)(F)F)n2)cc1)C(=O)O [Compound 1205] | 0.01 to 10 | – | – |
| Cc1ccc(-c2ccc(NC(=O)C(=O)NCCC(NC(=O)c3ccc(Nc4nc(NC5(c6ccc(Cl)cc6)CC5)nc(OCC(F)(F)F)n4)cc3)C(=O)O)cc2)cc1 (stereo not drawn) [Compound 3526] | – | 0.01 to 10 | – |
| CC(C)CNC(=O)C(=O)N(CCO)CCCNC(=O)c1ccc(Nc2nc(NC3(c4ccc(Cl)cc4)CC3)nc(OCC(F)(F)F)n2)cc1 [Compound 3505] | – | 0.01 to 10 | – |
| O=C(NCC1CCCc2ccccc21)C(=O)NC[C@@H](NC(=O)c1ccc(Nc2nc(NC3(c4ccc(Cl)cc4)CC3)nc(OCC(F)(F)F)n2)cc1)C(=O)O (stereo partly drawn) [Compound 1410] | 0.01 to 10 | – | – |
| O=C(NCC(O)CNC(=O)c1ccc(Nc2nc(NC3(c4ccc(Cl)cc4)CC3)nc(OCC(F)(F)F)n2)cc1)C(=O)N1CCc2ccccc2C1 (stereo not drawn) [Compound 3464] | – | 0.01 to 10 | – |
| COC(=O)[C@H](CCNC(=O)C(=O)NCc1cc(F)ccc1F)NC(=O)c1ccc(Nc2nc(NC3(c4ccc(Cl)cc4)CC3)nc(OCC(F)(F)F)n2)cc1 [Compound 1157] | 0.01 to 10 | – | – |
| COC(=O)[C@H](CNC(=O)C(=O)NCc1ccc(F)cc1F)NC(=O)c1ccc(Nc2nc(NC3(c4ccc(Cl)cc4)CC3)nc(OCC(F)(F)F)n2)cc1 [Compound 1134] | 0.01 to 10 | – | – |
| COC(=O)[C@H](CCNC(=O)C(=O)NCCc1ccc(OC)cc1)NC(=O)c1ccc(Nc2nc(NC3(c4ccc(Cl)cc4)CC3)nc(OCC(F)(F)F)n2)cc1 [Compound 1310] | 0.01 to 10 | – | EC50 [5]: 0.62 nM |
| O=C(NCC[C@H](NC(=O)c1ccc(Nc2nc(NC3(c4ccc(Cl)cc4)CC3)nc(OCC(F)(F)F)n2)cc1)C(=O)O)C(=O)NCC1(C(=O)O)CC1 [Compound 1447] | 10 to 1000 | – | EC50 [5]: 97.7 nM |

Reference: patent US8916702B2 (priority 2012, dated 2014)
